Experimental data as given in patent publication US20240368174A1, “Antiviral Heterocyclic Compounds” (Enanta Pharmaceuticals, Inc., priority 2023, published 2024).

What follows are compounds tested on HMPV clinical isolate A2 strain TN 94-49 (assay: HMPV antiviral assay, Method 2 (LLC-MK2 cells with CP-100-356, ATP-Lite)). Conditions: human metapneumovirus, 168 h; hMPV A2 TN/94-49, LLC-MK2 cells with 4 μM CP-100-356, 7 days, ATP-Lite.
Type: cell-based
Procedure, shortened: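 LLC-MK2 rhesus kidney cells (5,000/well) infected in suspension with HMPV A2 TN 94-49 at MOI 0.16, in serum-free medium with final 2 μg/mL TPCK-trypsin and 2 μM CP-100-356. Compounds tested in duplicate from 200 nM, 2.5-fold, 10 points; 7 days at 37 °C. Cell health by ATP-Lite luminescence; EC50 by four-parameter fit.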

Row | Compound | EC50 [µM]
1 | COc1cc(C(=O)NC[C@](O)(c2cc3c(c(-c4ccnc(C(F)F)c4Cl)n2)OC[C@]3(C)C(N)=O)C(F)(F)F)cc2cn(C3CC3)nc12 [Example 795] | < 0.2
2 | COc1cc(C(=O)NC[C@](O)(c2cc3c(c(-n4ccc5cc(F)ccc54)n2)OC[C@]3(C)C(N)=O)C(F)(F)F)cc2cn(C3CC3)nc12 [Example 852] | < 0.2
3 | COc1cc(C(=O)NC[C@](O)(c2cc3c(c(-n4ccc5c(F)cccc54)n2)OC[C@]3(C)C(N)=O)C2(F)CC2)cn2cc(C3CC3)nc12 [Example 690] | < 0.2
4 | COc1cc(C(=O)NC[C@](O)(c2cc3c(c(-c4ccnc(C(F)(F)F)c4Cl)n2)OC[C@]3(C)C(N)=O)C2CC2)cc2oc(C3CC3)nc12 [Example 762] | < 0.2
5 | COc1cc(C(=O)NC[C@@](O)(c2ccccc2)c2cc3c(c(-n4ncc5c(F)cccc54)n2)OC[C@]3(C)C(N)=O)cc2cc(C3CC3)nn12 [Example 630] | < 0.2
6 | COc1cc(C(=O)NC[C@](O)(c2cc3c(c(-c4ccnc(C(F)(F)F)c4Cl)n2)OC[C@]3(C)C(N)=O)C(F)(F)F)cc2cn(C3CC3)nc12 [Example 783] | < 0.2

Same assay, conditions: human metapneumovirus; hMPV A2 TN/94-49, LLC-MK2 cells with CP-100-356, Method 2

Row | Compound | EC50 [µM]
7 | C[C@]1(C(N)=O)COc2c1cc([C@@](O)(CNC(=O)c1cc(OC3CC3)c3nn(C(F)F)cc3c1)C1CC1)nc2-c1ccc2c(c1Cl)OC(F)(F)O2 [Example 129] | < 0.2
8 | COc1cc(C(=O)NC[C@](O)(c2cc3c(c(-c4ccsc4)n2)OC[C@]3(C)C(N)=O)C2CC2)cc2cn(C3CC3)nc12 [Example 413] | < 0.2
9 | COc1nccc(-c2nc([C@@](O)(CNC(=O)c3cc(OC4CC4)c4nn(C5CC5)cc4c3)C3CC3)cc3c2OC[C@]3(C)C(N)=O)c1Cl [Example 585] | < 0.2
10 | COc1cc(C(=O)N(C)C[C@](O)(c2cc3c(c(-c4ccc(F)c(Cl)c4)n2)OC[C@]3(C(N)=O)C(F)F)C2CC2)cc2cn(C3CC3)nc12 [Example 350] | > 0.2
11 | COc1cc(C(=O)NC[C@](O)(c2cc3c(c(-c4ccc(F)c(Cl)c4)n2)OC[C@]3(C)C(N)=O)C2CC2)cc2oc(C3CC3)nc12 [Example 111] | > 0.2
12 | COc1cc(C(=O)NC[C@@](O)(c2cccc(F)c2)c2cc3c(c(-c4cc(F)cnc4Cl)n2)OC[C@]3(C)C(N)=O)cc2cn(C3(F)CC3)nc12 [Example 403] | > 0.2
13 | COc1cc(C(=O)NC[C@](O)(c2cc3c(c(-c4cc(F)nc(F)c4)n2)OC[C@]3(C)C(N)=O)C2CC2)cc2cn(C3CC3)nc12 [Example 390] | < 0.2
14 | COc1cc(C(=O)NC[C@](O)(c2cc3c(c(-c4ccnc(C(F)(F)F)c4Cl)n2)OC[C@]3(C)C(N)=O)C2CC2)cc2oc(C(F)F)nc12 [Example 581] | < 0.2

Second part, the compound after the results:

Row | EC50 [µM] | Compound
15 | < 0.2 | C[C@]1(C(N)=O)COc2c1cc([C@@](O)(CNC(=O)c1cc(O)c3nn(C4CC4)cc3c1)C1CC1)nc2-c1cc(F)c(F)cc1F [Example 360]
16 | < 0.2 | [2H]c1nc2c(OC(F)F)cc(C(=O)NC[C@](O)(c3cc4c(c(-c5cc(Cl)c(F)cc5F)n3)OC[C@]4(C)C(N)=O)C3CC3)cc2cc1C([2H])([2H])[2H] [Example 218]
17 | < 0.2 | COc1cccc([C@](O)(CNC(=O)c2cc(OC)c3nn(C4(F)CC4)cc3c2)c2cc3c(c(-c4cc(Cl)c(F)cc4F)n2)OC[C@]3(C)C(N)=O)c1 [Example 162]
18 | < 0.2 | COc1cc(C(=O)NC[C@](O)(c2cc3c(c(-c4cc(C)c(F)cc4F)n2)OC[C@]3(C)C(N)=O)C2CC2)cc2cn(C3CC3)nc12 [Example 385]
19 | < 0.2 | COc1cc(C(=O)NC[C@](O)(c2cc3c(c(-c4cc(C(F)(F)F)c(F)cc4F)n2)OC[C@]3(C)C(N)=O)C2CC2)cc2cn(C3CC3)nc12 [Example 394]
20 | < 0.2 | COc1cc(C(=O)NC[C@](O)(c2cc3c(c(-c4cc(C(F)F)c(F)cc4F)n2)OC[C@]3(C)C(N)=O)C2CC2)cc2cn(C3CC3)nc12 [Example 393]

These compounds were tested on HMPV clinical isolate A2 strain TN 94-49 (assay: HMPV antiviral assay, Method 1 (LLC-MK2 cells, ATP-Lite)). Conditions: human metapneumovirus, hMPV A2 TN/94-49, LLC-MK2 cells.
Type: cell-based
Procedure, shortened: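 LLC-MK2 cells (5,000/well) infected in suspension with HMPV A2 TN 94-49 at MOI 0.005 in serum-free OptiMEM with 2 μg/mL final TPCK-trypsin, compounds in duplicate from 2 μM top, 2.5-fold, 10 points. After 7 days at 37° C, cell health by ATP-Lite luminescence normalised to virus and cell controls; EC50 from four-parameter fit.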

Row | Compound | EC50 [µM]
21 | C[C@]1(C(N)=O)COc2c1cc([C@@](O)(CNC(=O)c1cc(O)c3nn(C4CC4)cc3c1)C1CC1)nc2-c1cc(F)c(F)cc1F [Example 360] | > 0.5
22 | [2H]c1nc2c(OC(F)F)cc(C(=O)NC[C@](O)(c3cc4c(c(-c5cc(Cl)c(F)cc5F)n3)OC[C@]4(C)C(N)=O)C3CC3)cc2cc1C([2H])([2H])[2H] [Example 218] | < 0.5
23 | COc1cccc([C@](O)(CNC(=O)c2cc(OC)c3nn(C4(F)CC4)cc3c2)c2cc3c(c(-c4cc(Cl)c(F)cc4F)n2)OC[C@]3(C)C(N)=O)c1 [Example 162] | < 0.5
24 | COc1cc(C(=O)NC[C@](O)(c2cc3c(c(-c4cc(C)c(F)cc4F)n2)OC[C@]3(C)C(N)=O)C2CC2)cc2cn(C3CC3)nc12 [Example 385] | < 0.5
25 | COc1cc(C(=O)NC[C@](O)(c2cc3c(c(-c4cc(C(F)(F)F)c(F)cc4F)n2)OC[C@]3(C)C(N)=O)C2CC2)cc2cn(C3CC3)nc12 [Example 394] | < 0.5
26 | COc1cc(C(=O)NC[C@](O)(c2cc3c(c(-c4cc(C(F)F)c(F)cc4F)n2)OC[C@]3(C)C(N)=O)C2CC2)cc2cn(C3CC3)nc12 [Example 393] | < 0.5
27 | C[C@]1(C(N)=O)COc2c1cc([C@@](O)(CNC(=O)c1cc(OC3CC3)c3nn(C(F)F)cc3c1)C1CC1)nc2-c1ccc2c(c1Cl)OC(F)(F)O2 [Example 129] | < 0.5

The compounds below were run on genotype A, “Long” strain RSV (assay: RSV-A assay (CPE, ATPlite readout in Hep-2 cells)). Conditions: human respiratory syncytial virus, activity class.
Type: cell-based, Human respiratory syncytial virus
Procedure, shortened: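 Compound effect on RSV-induced CPE: Hep-2 monolayers, MOI 0.1, duplicate 2-fold titrations, 5-day culture in 10% FBS DMEM. Readout is ATP-based luminescence, normalised to virus-only and no-virus controls, giving EC50.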

Row | Compound | EC50 [µM]
28 | C[C@]1(C(N)=O)COc2c1cc([C@@](O)(CNC(=O)c1cc(OC3CC3)c3nn(C(F)F)cc3c1)C1CC1)nc2-c1ccc2c(c1Cl)OC(F)(F)O2 [Example 129] | < 0.2
29 | COc1cc(C(=O)NC[C@](O)(c2cc3c(c(-c4ccsc4)n2)OC[C@]3(C)C(N)=O)C2CC2)cc2cn(C3CC3)nc12 [Example 413] | < 0.2
30 | COc1nccc(-c2nc([C@@](O)(CNC(=O)c3cc(OC4CC4)c4nn(C5CC5)cc4c3)C3CC3)cc3c2OC[C@]3(C)C(N)=O)c1Cl [Example 585] | < 0.2
31 | COc1cc(C(=O)N(C)C[C@](O)(c2cc3c(c(-c4ccc(F)c(Cl)c4)n2)OC[C@]3(C(N)=O)C(F)F)C2CC2)cc2cn(C3CC3)nc12 [Example 350] | < 0.2
32 | COc1cc(C(=O)NC[C@](O)(c2cc3c(c(-c4ccc(F)c(Cl)c4)n2)OC[C@]3(C)C(N)=O)C2CC2)cc2oc(C3CC3)nc12 [Example 111] | < 0.2
33 | COc1cc(C(=O)NC[C@@](O)(c2cccc(F)c2)c2cc3c(c(-c4cc(F)cnc4Cl)n2)OC[C@]3(C)C(N)=O)cc2cn(C3(F)CC3)nc12 [Example 403] | < 0.2
34 | COc1cc(C(=O)NC[C@](O)(c2cc3c(c(-c4cc(F)nc(F)c4)n2)OC[C@]3(C)C(N)=O)C2CC2)cc2cn(C3CC3)nc12 [Example 390] | < 0.2
35 | COc1cc(C(=O)NC[C@](O)(c2cc3c(c(-c4ccnc(C(F)(F)F)c4Cl)n2)OC[C@]3(C)C(N)=O)C2CC2)cc2oc(C(F)F)nc12 [Example 581] | < 0.2

Now from value to compound:

Row | EC50 [µM] | Compound
36 | < 0.2 | C[C@]1(C(N)=O)COc2c1cc([C@@](O)(CNC(=O)c1cc(O)c3nn(C4CC4)cc3c1)C1CC1)nc2-c1cc(F)c(F)cc1F [Example 360]
37 | < 0.2 | [2H]c1nc2c(OC(F)F)cc(C(=O)NC[C@](O)(c3cc4c(c(-c5cc(Cl)c(F)cc5F)n3)OC[C@]4(C)C(N)=O)C3CC3)cc2cc1C([2H])([2H])[2H] [Example 218]
38 | < 0.2 | COc1cccc([C@](O)(CNC(=O)c2cc(OC)c3nn(C4(F)CC4)cc3c2)c2cc3c(c(-c4cc(Cl)c(F)cc4F)n2)OC[C@]3(C)C(N)=O)c1 [Example 162]
39 | < 0.2 | COc1cc(C(=O)NC[C@](O)(c2cc3c(c(-c4cc(C)c(F)cc4F)n2)OC[C@]3(C)C(N)=O)C2CC2)cc2cn(C3CC3)nc12 [Example 385]
40 | < 0.2 | COc1cc(C(=O)NC[C@](O)(c2cc3c(c(-c4cc(C(F)(F)F)c(F)cc4F)n2)OC[C@]3(C)C(N)=O)C2CC2)cc2cn(C3CC3)nc12 [Example 394]
41 | < 0.2 | COc1cc(C(=O)NC[C@](O)(c2cc3c(c(-c4cc(C(F)F)c(F)cc4F)n2)OC[C@]3(C)C(N)=O)C2CC2)cc2cn(C3CC3)nc12 [Example 393]
42 | < 0.2 | COc1cc(C(=O)NC[C@](O)(c2cc3c(c(-c4ccnc(C(F)F)c4Cl)n2)OC[C@]3(C)C(N)=O)C(F)(F)F)cc2cn(C3CC3)nc12 [Example 795]
43 | < 0.2 | COc1cc(C(=O)NC[C@](O)(c2cc3c(c(-n4ccc5cc(F)ccc54)n2)OC[C@]3(C)C(N)=O)C(F)(F)F)cc2cn(C3CC3)nc12 [Example 852]
44 | < 0.2 | COc1cc(C(=O)NC[C@](O)(c2cc3c(c(-n4ccc5c(F)cccc54)n2)OC[C@]3(C)C(N)=O)C2(F)CC2)cn2cc(C3CC3)nc12 [Example 690]
45 | < 0.2 | COc1cc(C(=O)NC[C@](O)(c2cc3c(c(-c4ccnc(C(F)(F)F)c4Cl)n2)OC[C@]3(C)C(N)=O)C2CC2)cc2oc(C3CC3)nc12 [Example 762]
46 | < 0.2 | COc1cc(C(=O)NC[C@@](O)(c2ccccc2)c2cc3c(c(-n4ncc5c(F)cccc54)n2)OC[C@]3(C)C(N)=O)cc2cc(C3CC3)nn12 [Example 630]
47 | < 0.2 | COc1cc(C(=O)NC[C@](O)(c2cc3c(c(-c4ccnc(C(F)(F)F)c4Cl)n2)OC[C@]3(C)C(N)=O)C(F)(F)F)cc2cn(C3CC3)nc12 [Example 783]
